The results in this text go back to ChEMBL document CHEMBL1201862, “PubChem BioAssay data set” (2004).

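Compound exposure: 48 hours, 5 concentrations, 96-well plates. GI50: concentration for 50% inhibition of growth.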 Active and inactive are the calls of the source. Rule as the data show it: active = GI50 up to about 1.1 µM and inactive = higher.

Common to all, as to test: DTP human tumour cell line panel, 48 h
For assay [1], the system named is SK-MEL-28.
The subject of assay [2] is ACHN.
Assay [3] deals with U-251.
The subject of assay [4] is KM12.
Assay [5] concerns MOLT-4.
In assay [6] the test system is SNB-19.
The test system of assay [7] is SK-MEL-2.
For assay [8], the system named is HL-60.
Assay [9] concerns HCT-15.
The test system of assay [10] is 786-0.
The test system of assay [11] is KM-20L2.
The test system of assay [12] is A549.
Assay [13] concerns UACC-257.
The subject of assay [14] is SW-620.
Assay [15] deals with M14.
The subject of assay [16] is SF-268.
For assay [17], the system named is MDA-N.
In assay [18] the test system is HCC 2998.
The subject of assay [19] is SK-MEL-5.
Assay [20] has as its system DU-145.

A word on the GI50: it is the concentration that inhibits growth by half. Take `N#Cc1cn(-c2c3ccccc3nc3ccccc23)c(=O)[nH]c1=O`: the GI50 in assay [1] is 16.8 µM (inactive); in assay [2], 4.19 µM (inactive); in assay [3], 18 µM (inactive); in assay [4] it was 7.16 µM (inactive); in assay [5], 4.15 µM (inactive); in assay [6], 22.2 µM (inactive). The GI50 in assay [7] was 10.8 µM (inactive); in [8] it was 10.6 µM (inactive); in assay [9] it was 5.96 µM; in assay [10] it was 3.29 µM (inactive); in [11], 7.38 µM (inactive); in assay [12], 4.56 µM (inactive). The GI50 in assay [13] is 4.86 µM (inactive); in [14] it was 5.01 µM (inactive); in assay [15], 11.6 µM (inactive); in assay [16] it was 4.74 µM (inactive).

Consider `COc1cc2c(c(OC)c1OC)C(=O)[C@@H]1[C@H]2N1C(=O)NCCCl`, for which the GI50 in assay [17] is 32.4 µM (inactive); in [1], > 100 µM (inactive); in assay [2], 50.5 µM (inactive); in assay [18], > 100 µM (inactive); in assay [3], 37.1 µM (inactive); in [4] it was 53.3 µM (inactive). The GI50 in assay [5] was 50.7 µM (inactive); in assay [6], > 100 µM (inactive); in [7], > 100 µM (inactive); in assay [8], 29.2 µM (inactive); in assay [9], 36.1 µM; in assay [10], > 100 µM (inactive). Besides, the GI50 in assay [19] was 46.8 µM (inactive); in assay [12], 58.2 µM (inactive); in [13], 79.8 µM (inactive); in assay [14], > 100 µM (inactive); in [20], 66.8 µM (inactive); in assay [15], 50.4 µM (inactive). Also, the GI50 in [16] is 76.9 µM (inactive).

Take `COc1ccccc1Nc1nc(N)nc(N)c1N=O`: the GI50 in assay [17], in [1], in assay [2], in [18], in assay [3] and in [4] was > 100 µM (inactive) in each case. Moreover, the GI50 in assay [5] is > 100 µM (inactive); in [6], > 100 µM (inactive); in [7], > 100 µM (inactive); in [8], > 100 µM (inactive); in assay [9], greater than 100 µM; in [10], > 100 µM (inactive). In addition, the GI50 in assay [19] was > 100 µM (inactive); in assay [12] it was > 100 µM (inactive); in [13], > 100 µM (inactive); in assay [14], > 100 µM (inactive); in [20], > 100 µM (inactive); in assay [15] it was 64 µM (inactive). For the same compound, the GI50 in assay [16] was > 100 µM (inactive).

Take `Cc1ccc(-c2nnc(-c3nn(-c4ccccc4)c4nc5ccccc5nc34)o2)cc1`: the GI50 in assay [1] was 26.6 µM (inactive); in assay [2], 14.4 µM (inactive); in assay [3], 11.8 µM (inactive); in assay [4], 17.8 µM (inactive); in assay [5], 16 µM (inactive); in [6] it was 21.5 µM (inactive). Further, the GI50 in [7] is 16 µM (inactive); in assay [8] it was 11 µM (inactive); in assay [9] it was 21.4 µM; in assay [10] it was 9.93 µM (inactive); in [11], 42.4 µM (inactive); in assay [19], 10.9 µM (inactive). Besides, the GI50 in assay [12] was 13.3 µM (inactive); in assay [13] it was 35.9 µM (inactive); in assay [14], 35.6 µM (inactive); in assay [15] it was 25.8 µM (inactive); in assay [16] it was 11.1 µM (inactive).

Turning to `COCN1C(N)=C(C(=O)OC(C)(C)C)C2=CC(=O)C=CC21C` (centres undefined), the GI50 in assay [17] was 16.1 µM (inactive); in assay [1], 20.3 µM (inactive); in assay [2] it was 7.01 µM (inactive); in assay [18], 22.6 µM (inactive); in assay [3], 17 µM (inactive); in assay [4], 16.6 µM (inactive). In addition, the GI50 in assay [5] is 3.7 µM (inactive); in [6], > 100 µM (inactive); in assay [7], 17.3 µM (inactive); in [8], 14.4 µM (inactive); in [9] it was 13.9 µM; in assay [10] it was 11.9 µM (inactive). For the same compound, the GI50 in assay [19] was 15.3 µM (inactive); in assay [12], 18.9 µM (inactive); in [13], 10.6 µM (inactive); in assay [14], 4.99 µM (inactive); in assay [20], 11.9 µM (inactive); in assay [15] it was 15.8 µM (inactive). For the same compound, the GI50 in assay [16] was 15.8 µM (inactive).

Consider `CN(N=O)C(=O)NNC(=O)N(C)N=O`, for which the GI50 in assay [17] was > 100 µM (inactive); in assay [1], > 100 µM (inactive); in assay [2], > 100 µM (inactive); in [18], > 100 µM (inactive); in assay [3], 52.5 µM (inactive); in assay [4], > 100 µM (inactive). The GI50 was 35.2 µM (inactive) in [5]; > 100 µM (inactive) in assay [6]; 73.3 µM (inactive) in [7]; 31.6 µM (inactive) in assay [8]; 37.9 µM in [9]; 48.3 µM (inactive) in assay [10]. Moreover, the GI50 in assay [19] is 67.6 µM (inactive); in assay [12], > 100 µM (inactive); in assay [13] it was > 100 µM (inactive); in assay [14] it was 36.2 µM (inactive); in [20], > 100 µM (inactive); in assay [15], 93.5 µM (inactive). For the same compound, the GI50 in assay [16] was 38.9 µM (inactive).

Take `Cc1nc2c(cc1OCc1ccccc1)C(=O)C1=C(C2=O)C2OC(=O)CC2OC1(C)C` (centres undefined): the GI50 is 0.404 µM (active) in assay [17]; 0.33 µM (active) in assay [1]; 0.619 µM (active) in assay [2]; 0.579 µM (active) in assay [18]; 0.859 µM (active) in assay [3]; 0.531 µM (active) in assay [4]. The GI50 in assay [5] was 0.358 µM (active); in [6], 2.49 µM (inactive); in assay [7] it was 1.46 µM (inactive); in assay [8], 0.0697 µM (active); in assay [9], 0.228 µM; in [10], 0.3 µM (active). Moreover, the GI50 was 1.18 µM (inactive) in assay [19]; 6.44 µM (inactive) in assay [12]; 0.671 µM (active) in [13]; 0.322 µM (active) in assay [14]; 1.71 µM (inactive) in [20]; 0.536 µM (active) in [15]. Moreover, the 50% growth inhibitory concentration (GI50) in [16] is 0.475 µM (active).

As for `COc1ccc2c(=O)c3ccoc3n(CC=C(C)C)c2c1` [ACROPHYLLINE], the GI50 in [17] is 73.8 µM (inactive); in [1], 60.5 µM (inactive); in assay [2], 8.49 µM (inactive); in assay [18], > 91.4 µM (inactive); in assay [3] it was > 100 µM (inactive); in assay [4], 45.9 µM (inactive). In addition, the GI50 in assay [5] is 25.2 µM (inactive); in [6], > 76.6 µM (inactive); in [7], 81.7 µM (inactive); in assay [8], 23.6 µM (inactive); in [9] it was 35.6 µM; in assay [10], > 91.6 µM (inactive). The GI50 in [19] is 32 µM (inactive); in assay [12], 7.14 µM (inactive); in assay [13], 75.2 µM (inactive); in [14], 97.3 µM (inactive); in assay [20], 34 µM (inactive); in assay [15], 64.4 µM (inactive). For the same compound, in assay [16], the GI50 is 78.2 µM (inactive).

With `COc1ccc(C(c2ccc3c(c2)OCO3)N2C(=O)CCC2C(=O)O)cc1` (centres undefined), the GI50 in assay [17], in assay [1], in assay [2], in [18], in assay [3] and in assay [4] was > 100 µM (inactive) throughout. In addition, the GI50 in assay [5] is > 100 µM (inactive); in assay [6], > 100 µM (inactive); in assay [7], > 100 µM (inactive); in [8], > 100 µM (inactive); in assay [9] it was greater than 100 µM; in assay [10] it was > 100 µM (inactive). Besides, the GI50 in [19], in assay [12], in assay [13], in assay [14], in assay [20] and in [15] was > 100 µM (inactive) in each case. Also, the GI50 in assay [16] is > 100 µM (inactive).

Take `C[C@@]12CCCC(=O)N1[C@@H](CO)C(c1ccccc1)O2` (some centres undefined): the GI50 in [1], in assay [2], in assay [3], in assay [4], in assay [6] and in [7] was > 100 µM (inactive) throughout. Moreover, the GI50 in assay [9] is greater than 100 µM; in [10], > 100 µM (inactive); in assay [11] it was > 100 µM (inactive); in assay [19], > 100 µM (inactive); in assay [12] it was > 100 µM (inactive); in [13] it was > 100 µM (inactive). For the same compound, the GI50 in [14] and in assay [16] was > 100 µM (inactive) each time.

On to `Cc1ccccc1NC(=O)O/N=C(\Cl)C(C)C`, for which the GI50 was 2.72 µM (inactive) in assay [17]; 2.4 µM (inactive) in assay [1]; 1.69 µM (inactive) in assay [2]; 17.3 µM (inactive) in assay [18]; 19.4 µM (inactive) in [3]; 18.6 µM (inactive) in assay [4]. The GI50 is 2.74 µM (inactive) in assay [5]; 20.8 µM (inactive) in [6]; 17.8 µM (inactive) in assay [7]; 2.46 µM (inactive) in assay [8]; 2.09 µM in assay [9]; 1.81 µM (inactive) in [10]. Moreover, the GI50 in [19] was 11 µM (inactive); in assay [12] it was 19.1 µM (inactive); in assay [13] it was 14.9 µM (inactive); in assay [14] it was 1.82 µM (inactive); in assay [20] it was 17.2 µM (inactive); in [15] it was 3.22 µM (inactive). Moreover, the GI50 in assay [16] was 19.3 µM (inactive).
